pIC50: −log10 of the molar value. Where a name gives a salt, the structure may show the parent alone.

We go through seven compounds from article PMC4446597, “Novel Adociaquinone Derivatives from the Indonesian Sponge Xestospongia sp” (Marine Drugs, 2015).

The target of one experiment is CDK1/cyclin B. In words: Protein kinase assay, CDK1/cyclin B. The conditions noted are these: 15 µM ATP, 30 °C, triplicates. It is filed as biochemical. The procedure:
(§1) Evaluation of the protein kinase inhibitory activity was performed in vitro as previously described. Briefly, homogenization buffer: 60 mM β-glycerophosphate, 15 mM p-nitrophenylphosphate, 25 mM Mops (pH 7.2), 15 mM EGTA, 15 mM MgCl2, 1 mM dithiothreitol, 1 mM sodium vanadate, 1 mM NaF, 1 mM phenylphosphate, 10 µg leupeptin mL^−1, 10 µg aprotinin mL^−1, 10 µg soybean trypsin inhibitor mL^−1, and 100 µg benzamidine. Buffer A: 10 mM MgCl2, 1 mM EGTA, 1 mM dithiothreitol, 25 mM Tris-HCl pH 7.5, 50 µg heparin mL^−1. Buffer C: homogenization buffer but 5 mM EGTA, no NaF and no protease inhibitors. Kinase activities were assayed in triplicates in buffer A or C at 30 °C, at a final ATP concentration of 15 µM. The order of mixing the reagents was: buffers, substrate, enzyme, inhibitor and ^33P-radiolabelled ATP. Isolated compounds were tested against a panel of eight kinases; namely cyclin-dependent kinase 1 (CDK1/cyclin B), cyclin-dependent kinase 2 (CDK2/cyclin A), cyclin-dependent kinase 5 (CDK5/p25), cyclin-dependent kinase 9 (CDK9/cyclin T), casein kinase 1 (CK1), Cdc2-like kinase 1 (CLK1), dual-specificity tyrosine-(Y)-phosphorylation regulated kinase 1A (DYRK1A) and glycogen synthase kinase-3α/β (GSK-3α/β).

The target in the next experiment is CDK2/cyclin A (Homo sapiens, UniProt P24941). In words: Protein kinase assay, CDK2/cyclin A. To be noted: 15 µM ATP, 30 °C, triplicates. It is filed as biochemical. As to the method: as §1
The target in a further experiment is CDK5/p25 (Homo sapiens, UniProt Q00535). The experiment can be described thus: Protein kinase assay, CDK5/p25. The class given is biochemical. To be noted: 15 µM ATP, 30 °C, triplicates. The procedure:
as §1

The target of a further experiment is CDK9/cyclin T (Homo sapiens, UniProt P50750). The experiment can be described thus: Protein kinase assay, CDK9/cyclin T. It is filed as biochemical. To be noted: 15 µM ATP, 30 °C, triplicates. As to the method: as §1
CDK9/cyclin T, sequence (P50750 whole entry, species assumed): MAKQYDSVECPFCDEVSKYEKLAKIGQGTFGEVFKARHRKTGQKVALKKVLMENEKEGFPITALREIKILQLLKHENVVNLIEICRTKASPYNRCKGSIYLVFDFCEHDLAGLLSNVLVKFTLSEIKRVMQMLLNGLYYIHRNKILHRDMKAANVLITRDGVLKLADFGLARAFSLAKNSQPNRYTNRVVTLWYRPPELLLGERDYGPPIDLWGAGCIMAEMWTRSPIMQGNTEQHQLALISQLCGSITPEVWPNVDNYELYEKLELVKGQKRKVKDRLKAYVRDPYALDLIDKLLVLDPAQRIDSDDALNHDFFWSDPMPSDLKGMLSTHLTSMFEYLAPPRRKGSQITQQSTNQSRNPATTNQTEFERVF
CDK9/cyclin T, sequence (O60563 whole entry partner, species assumed): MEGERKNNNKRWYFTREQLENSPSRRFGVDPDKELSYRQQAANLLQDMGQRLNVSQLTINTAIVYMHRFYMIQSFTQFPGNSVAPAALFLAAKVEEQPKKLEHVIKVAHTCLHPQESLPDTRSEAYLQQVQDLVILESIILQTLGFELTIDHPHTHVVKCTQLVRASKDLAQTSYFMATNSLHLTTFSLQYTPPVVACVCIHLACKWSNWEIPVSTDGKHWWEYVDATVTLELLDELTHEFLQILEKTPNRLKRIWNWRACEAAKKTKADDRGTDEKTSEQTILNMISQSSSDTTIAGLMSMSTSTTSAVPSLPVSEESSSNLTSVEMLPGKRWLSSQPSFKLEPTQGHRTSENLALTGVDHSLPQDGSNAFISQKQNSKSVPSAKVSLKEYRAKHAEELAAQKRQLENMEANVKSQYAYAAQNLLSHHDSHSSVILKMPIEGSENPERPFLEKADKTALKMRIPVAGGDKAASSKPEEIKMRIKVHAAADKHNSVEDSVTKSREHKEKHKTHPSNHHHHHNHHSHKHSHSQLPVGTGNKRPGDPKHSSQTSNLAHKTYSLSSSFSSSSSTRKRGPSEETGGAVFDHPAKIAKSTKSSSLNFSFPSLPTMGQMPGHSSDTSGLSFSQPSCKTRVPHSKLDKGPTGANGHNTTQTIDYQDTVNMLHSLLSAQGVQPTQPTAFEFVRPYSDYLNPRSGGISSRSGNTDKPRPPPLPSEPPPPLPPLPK
The next experiment concerns the target casein kinase 1 (CK1). In words: Protein kinase assay, casein kinase 1. It is filed as biochemical. The conditions noted are these: 15 µM ATP, 30 °C, triplicates. As to the method:
as §1

Experiment [1] addresses glycogen synthase kinase-3α/β (GSK-3α/β). The experiment can be described thus: Protein kinase assay, GSK-3α/β. The class given is biochemical. The conditions noted are these: 15 µM ATP, 30 °C, triplicates, read-out: GSK3 IC50. As to the method:
as §1

The subject of a further experiment is topoisomerase II. Also on record: method as in PMID 7473578. To be noted: catalytic DNA unwinding and decatenation assays, KSDS assay; cited from earlier work.
The test system of experiment [2] is Staphylococcus aureus ATCC 6538. In words: Antibacterial assay, growth inhibition in liquid culture. The class given is cell-based. The conditions noted are these: ATCC6538, S. aureus ATCC 6538, OD 620 nm after 16 to 18 h, read-out: antibacterial activity IC50 against Staphylococcus aureus. The procedure: The antibacterial activity assay was conducted on the bacterial strain Gram-positive Staphylococcus aureus ATCC 6538 and Gram-negative Escherichia coli ATCC 8739 evaluated in vitro by determining the IC50. A pre-culture of 5 mL LB (Luria Bertoni) medium was prepared by inoculating a colony of the bacterial strain and was incubated at 37 °C with stirring overnight. The concentration of the pre-culture was assessed by measuring the optical density OD at 620 nm and adjusted by dilution to obtain a suspension of 0.03 OD. The […] was determined by a liquid test in 96-well-plates. A quantity of 200 µL of the bacterial suspension was distributed in each well and 10 µL of the extracts, fractions or pure compounds solutions in DMSO (10, 5 and 2 mg/mL, respectively) were added in triplicate. The 96 well-plates were incubated at 30 °C for 16 to 18 h with shaking (450 rpm). The optical density of the wells was measured at 620 nm and the results were interpreted by calculating the percentage of growth inhibition in each well using the formula: % inhibition = 100 − (DOS − DOB)/(DOT − DOB) ×100 where T = bacterial suspension without test sample, B = culture medium without bacteria and S = bacterial suspension test sample. Ampicillin and chloramphenicol were used as positive control against S. aureus and E. coli, respectively.

The target of the next experiment is DYRK1A (Rattus norvegicus, UniProt Q63470). In words: Protein kinase assay, DYRK1A. The class given is biochemical. As to the method:
as §1

In experiment [3] the target is human farnesyltransferase. Also on record: method as in PMID 20634081. To be noted: read-out: IC50 against human farnesyltransferase; cited from earlier work.
Experiment [4] concerns the target yeast farnesyltransferase. Also on record: method as in PMID 20634081. To be noted: read-out: IC50 against yeast farnesyltransferase; cited from earlier work.

CDK5/p25, sequence (Q00535 whole entry, species assumed): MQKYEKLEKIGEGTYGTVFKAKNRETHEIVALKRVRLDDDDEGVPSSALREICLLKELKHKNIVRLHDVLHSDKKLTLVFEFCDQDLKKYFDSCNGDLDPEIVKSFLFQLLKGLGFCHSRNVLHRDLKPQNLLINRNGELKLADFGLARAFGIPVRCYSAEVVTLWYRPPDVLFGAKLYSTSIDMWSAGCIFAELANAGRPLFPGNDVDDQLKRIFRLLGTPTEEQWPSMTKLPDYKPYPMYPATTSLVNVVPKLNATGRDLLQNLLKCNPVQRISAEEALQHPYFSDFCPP
CDK5/p25, sequence (Q15078 99-307 partner limits assumed, species assumed): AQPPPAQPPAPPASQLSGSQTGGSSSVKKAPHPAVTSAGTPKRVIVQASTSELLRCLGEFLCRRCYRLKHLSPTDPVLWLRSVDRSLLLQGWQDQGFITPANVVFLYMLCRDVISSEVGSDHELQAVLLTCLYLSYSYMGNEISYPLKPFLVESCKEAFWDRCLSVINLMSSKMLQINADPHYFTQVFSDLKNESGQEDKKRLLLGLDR

As for `C[C@@]12CCCc3coc(c31)C(=O)c1cc3c(cc12)C(=O)C1=C(NCCS1(=O)=O)C3=O` [Compound 6, adociaquinone B], the pIC50 (as a rule, the negative decadic logarithm of the IC50, by convention in mol/L) was under 5.00 on CDK1/cyclin B; under 5.00 against CDK2/cyclin A; under 5.00 against CDK5/p25; 5.52 against CDK9/cyclin T; under 5.00 against casein kinase 1 (CK1); under 5.00 in experiment [1]. In the experiment on topoisomerase II, the “inhibition of topoisomerase II (in words)” value was “inhibition of topoisomerase II”.

In the case of `C[C@@]12CCCc3coc(c31)C(=O)c1cc3c(cc12)C(=O)C=C(NCCS(=O)(=O)O)C3=O` [Compound 8, secoadociaquinone B], the pIC50 against CDK1/cyclin B was under 5.00; on CDK2/cyclin A it was under 5.00; against CDK5/p25 it was 5.22; at CDK9/cyclin T, under 5.00; against casein kinase 1 (CK1) it was under 5.00; in experiment [1] it was under 5.00.

Turning to `C[C@@]12CCCc3coc(c31)C(=O)c1cc3c(O)ccc(OS(=O)(=O)O)c3cc12` [Compound 11, xestoquinol sulfate], the pIC50 in experiment [2] was 3.90.

For the compound `C[C@@]12CCC(=O)c3coc(c31)C(=O)c1cc3c(O)ccc(OS(=O)(=O)O)c3cc12` [Compound 12], the pIC50 was 5.37 on CDK1/cyclin B; 5.12 at CDK2/cyclin A; 5.66 against CDK5/p25; 6.30 on CDK9/cyclin T; 5.28 against casein kinase 1 (CK1); 6.21 in experiment [1].

On to `CO[C@]12OC(O)C3=C1[C@@](C)(CCC3=O)c1cc3c(OS(=O)(=O)O)ccc(O)c3cc1C2=O` (stereo partly drawn) [Compound 13], for which the pIC50 (against CDK1/cyclin B; on CDK2/cyclin A; against CDK5/p25; against CDK9/cyclin T; against casein kinase 1 (CK1); in [1]) was under 5.00 throughout. The “activity against DYRK1A (in words)” value at DYRK1A is “marginal activity”.

Turning to `CC1=CCCC2(C)C1=C(O)C(=O)c1cc3c(cc12)C(=O)C=CC3=O` (stereo not drawn) [Orhalquinone], the pIC50 in experiment [3] and in experiment [4] was 6.40 each time.

Regarding adociaquinone A [Compound 5], the “inhibition of topoisomerase II (in words)” value with topoisomerase II is “inhibition of topoisomerase II”.
